Source: publication PMC7069944, “Amino acid levels determine metabolism and CYP450 function of hepatocytes and hepatoma cell lines” (Nature Communications, 2020)
Several values for one entry are separate records, joined by “and”; a condition that tells them apart may be missing. Equal entries are not always repeated.

Tests used:
[1] = tested on: HepG2; experiment: Repeated-exposure DILI training compounds, resazurin conversion, HepG2; conditions: repeat exposure
Procedure, shortened: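 PSC-derived cells differentiated in 384-well format, plus HepG2 seeded at 40,000 cells/well, received drugs after 8 h of attachment; untreated wells served as negative controls. Viability was measured by resazurin conversion and related to therapeutic Cmax values.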

[2] = tested on: HLC; experiment: Repeated-exposure DILI training compounds, resazurin conversion, HLC; conditions: repeat exposure
Procedure, shortened: (§1)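 Viability by resazurin conversion, correlated with Cmax, was assessed after drug exposure in 384-well cultures of differentiated PSCs and of HepG2 (40,000 cells/well). Dosing began 8 h post-attachment, with untreated wells as negative control.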

[3] = tested on: HC3X; experiment: Repeated-exposure DILI training compounds, resazurin conversion, HC3X
Procedure, shortened: as §1

[4] = tested on: HC6X; experiment: Repeated-exposure DILI training compounds, resazurin conversion, HC6X; conditions: repeat exposure
Procedure, shortened: as §1

## COc1ccccc1Oc1c(NS(=O)(=O)c2ccc(C(C)(C)C)cc2)nc(-c2ncccn2)nc1OCCO [bosentan]
[1]; HepG2 AAGLY D30, 3 uM
  % resazurin conversion: 83.9% and 87.5% and 86.6% and 85% and 90.8% and 89.1%
[1]; HepG2 AAGLY D30, 5 uM
  % resazurin conversion: 103.5% and 109.8% and 105.4% and 106.1% and 101% and 103.7%
[1]; HepG2 AAGLY D30, 10 uM
  % resazurin conversion: 90.8% and 98.2% and 96.3% and 97.7% and 97.3% and 97.5%
[1]; HepG2 AAGLY D30, 30 uM
  % resazurin conversion: 90.6% and 101.6% and 98.2% and 101.9% and 99.2% and 99.7%
[1]; HepG2 AAGLY D30, 50 uM
  % resazurin conversion: 84.4% and 90.1% and 80.4% and 87% and 86.9% and 92.2%
[1]; HepG2 AAGLY D30, 600 uM
  % resazurin conversion: 8% and 8.7% and 8.4% and 8.6% and 8.3% and 9%
[1]; HepG2 AAGLY D30, 1200 uM
  % resazurin conversion: 7.9% and 8.6% and 8% and 8.4% and 8.7%
[1]; HepG2 CTL D7, 3 uM
  % resazurin conversion: 72.9% and 95.8% and 79% and 88.4% and 77.2% and 78.8%
[1]; HepG2 CTL D7, 5 uM
  % resazurin conversion: 73% and 91.1% and 80.4% and 81.6% and 71% and 76.1%
[1]; HepG2 CTL D7, 10 uM
  % resazurin conversion: 80.2% and 87.8% and 81.3% and 100.4% and 83.9% and 90.2%
[1]; HepG2 CTL D7, 30 uM
  % resazurin conversion: 88.1% and 98.7% and 86.3% and 105.4% and 85.7% and 92.4%
[1]; HepG2 CTL D7, 50 uM
  % resazurin conversion: 100.8% and 104.7% and 98% and 123.6% and 67.3% and 101.1%
[1]; HepG2 CTL D7, 100 uM
  % resazurin conversion: 111.8% and 105.3% and 106.2% and 109.9% and 117.5%
[1]; HepG2 CTL D7, 300 uM
  % resazurin conversion: 107% and 119.1% and 111.5% and 146.3% and 120.1% and 110.8%
[1]; HepG2 CTL D7, 600 uM
  % resazurin conversion: 50.2% and 44.9% and 48.2% and 53.5% and 46.5% and 47.5%
[1]; HepG2 CTL D7, 1200 uM
  % resazurin conversion: 40.4% and 38.1% and 40.3% and 39.7% and 40.2% and 39%
[2]; HLC AAGLY D40, 3 uM
  % resazurin conversion: 109.3% and 112.7% and 130.6% and 92% and 117.8% and 119.8%
[2]; HLC AAGLY D40, 10 uM
  % resazurin conversion: 148.2% and 164.2% and 142.5% and 106% and 129.2% and 90.2%
[2]; HLC AAGLY D40, 30 uM
  % resazurin conversion: 132.6% and 125.2% and 98.6% and 133% and 124.8%
[2]; HLC AAGLY D40, 300 uM
  % resazurin conversion: 153.6% and 174.4% and 181% and 131.1% and 171.9% and 113.3%
[2]; HLC LDM D40, 3 uM
  % resazurin conversion: 65.2% and 80.9% and 104.5% and 116.7% and 90.6% and 90.5%
[2]; HLC LDM D40, 5 uM
  % resazurin conversion: 79.3% and 100.8% and 63.5% and 57.3% and 83.2% and 66.4%
[2]; HLC LDM D40, 10 uM
  % resazurin conversion: 54.2% and 93.9% and 81.1% and 77.7% and 59.3% and 81.3%
[2]; HLC LDM D40, 50 uM
  % resazurin conversion: 60.7% and 70.7% and 67.1% and 86.7% and 80.2% and 104.9%
[2]; HLC LDM D40, 100 uM
  % resazurin conversion: 75% and 93.6% and 100.7% and 102.7% and 92.9% and 94.1%
[3]; human
  IC50/Cmax: 20.81
[3]; repeat exposure, HC3X AAGLY D40, 600 uM
  % resazurin conversion: 1159% and 1257% and 1241% and 1301% and 1247% and 1406%
[4]; HC6X AAGLY D40, 3 uM
  % resazurin conversion: 121.3% and 137.4% and 77.6% and 97.3% and 111.3% and 90.5%
[4]; HC6X AAGLY D40, 5 uM
  % resazurin conversion: 110% and 103.2% and 89.1% and 89.6% and 114.4% and 93.7%
[4]; HC6X AAGLY D40, 10 uM
  % resazurin conversion: 131.4% and 134.4% and 92.1% and 126.5% and 93.7% and 145.1%
[4]; HC6X AAGLY D40, 50 uM
  % resazurin conversion: 121.5% and 126.6% and 76.5% and 101.9% and 125.3% and 68.1%
[4]; HC6X AAGLY D40, 300 uM
  % resazurin conversion: 51.6% and 48.9% and 38.5% and 48% and 36.4% and 37.5%
[4]; HC6X AAGLY D40, 600 uM
  % resazurin conversion: 42.8% and 51.2% and 38.6% and 45.8% and 36.3% and 36.8%
[4]; HC6X AAGLY D40, 1200 uM
  % resazurin conversion: 43.6% and 36.9% and 34.8% and 34.9% and 34.2% and 34.3%
[4]; HC6X AAGLY D40 Remove dox, 5 uM
  % resazurin conversion: 141.3% and 131.9% and 106.3% and 141.8% and 135.5% and 84.1%
[4]; HC6X AAGLY D40 Remove dox, 10 uM
  % resazurin conversion: 112.1% and 102.7% and 152.9% and 116.3% and 149.9% and 95.7%
